Assay results: patent publication US8343983B2, “Substituted pyrazolo-pyrimidine compounds” (ArQule, Inc., priority 2009, dated 2013)
Like-named read-outs stand apart in the source and are kept apart here.

System: cancer cells
Assay: MTS assay: inhibition of cell growth (formazan absorbance at 492 nm after 72 hours with test compound)
Type: cell-based
Conditions: inhibition class
Procedure: Cells were maintained at 37° C., 5% CO2 in DMEM media supplemented with 1% fetal bovine serum, penicillin/streptomycin and fungizone (Invitrogen). Cells were seeded into 96-well tissue culture plates at 3000 per well and cultured at 37° C. for 18 hours. Test compounds were dissolved and diluted to 300× in DMSO then diluted 1:40 in DMEM. Cells were incubated with test compounds for 72 hours followed by incubation with tetrazolium compound (3-(4,5-dimethylthiazol-2-yl)-5-(3-carboxymethoxyphenyl)-2-(4-sulfophenyl)-2H-tetrazolium, inner salt; MTS) and the electron coupling reagent, phenazine methosulfate (PMS) for 4 hours. […] The ability of compounds to inhibit cell growth in this assay is correlated with the reduction of dehydrogenase enzyme activity found in metabolically active cells. The measurement of the absorbance of the formazan was assessed using an ENVISION™ (Perkin Elmer) microplate reader at 492 nm. The calculated IC50 value is the concentration of the test compound that causes a 50% decrease in the absorbance. […] A=>79% inhibition, B=>50 to 79% inhibition, C=<50% inhibition.

[1] = Homo sapiens, DLD-1 cells, read-out: DLD-1, MTS 72 hours at 10 uM
[2] = Homo sapiens, KATO III cells, read-out: KATO III, MTS 72 hours at 10 uM
[3] = Homo sapiens, MDA-MB-231 cells, read-out: MDA-MB-231, MTS 72 hours at 10 uM
[4] = Homo sapiens, NCI-H1299 cells, read-out: NCI-H1299, MTS 72 hours at 10 uM
[5] = Homo sapiens, PC-3 cells, read-out: PC-3, MTS 72 hours at 10 uM
[6] = PACA-2 cells, read-out: PACA-2, MTS 72 hours at 10 uM

| SMILES | inhibition at 10 µM [1] [%] | inhibition at 10 µM [2] [%] | inhibition at 10 µM [3] [%] | inhibition at 10 µM [4] [%] | inhibition at 10 µM [5] [%] | inhibition at 10 µM [6] [%] |
| --- | --- | --- | --- | --- | --- | --- |
| COc1ccccc1N1CCN(c2nc3c4c(n[nH]c4n2)CCN3Cc2ccccc2)CC1 [Compound 43, 6-benzyl-4-[4-(2-methoxyphenyl)piperazin-1-yl]-2,6,7,8-tetrahydro-1,2,3,5,6-pentaazaacenaphthylene] | < 50 | > 79 | > 79 | < 50 | > 79 | < 50 |
| CN1CCN(c2nc3c4c(n[nH]c4n2)CCN3Cc2ccccc2)CC1 [Compound 80, 6-benzyl-4-(4-methylpiperazin-1-yl)-2,6,7,8-tetrahydro-1,2,3,5,6-pentaazaacenaphthylene] | < 50 | < 50 | < 50 | < 50 | < 50 | < 50 |
| c1ccc(CN2CCc3n[nH]c4nc(N5CCN(c6ccccc6)CC5)nc2c34)cc1 [Compound 44, 6-benzyl-4-(4-phenylpiperazin-1-yl)-2,6,7,8-tetrahydro-1,2,3,5,6-pentaazaacenaphthylene] | < 50 | < 50 | < 50 | < 50 | < 50 | < 50 |
| COc1ccc(CN2CCc3n[nH]c4nc(NCc5ccc(Cl)cc5)nc2c34)cc1 [Compound 117, N-(4-chlorobenzyl)-6-(4-methoxybenzyl)-2,6,7,8-tetrahydro-1,2,3,5,6-pentaazaacenaphthylen-4-amine] | 50 to 79 | < 50 | 50 to 79 | 50 to 79 | < 50 | < 50 |
| COc1ccc2c(CCNc3nc4c5c(n[nH]c5n3)CCN4Cc3ccccc3)c[nH]c2c1 [Compound 98, 6-benzyl-N-[2-(6-methoxy-1H-indol-3-yl)ethyl]-2,6,7,8-tetrahydro-1,2,3,5,6-pentaazaacenaphthylen-4-amine] | < 50 | 50 to 79 | 50 to 79 | 50 to 79 | > 79 | < 50 |
| c1ccc(CN2CCc3n[nH]c4nc(N5CCN(CCc6ccncc6)CC5)nc2c34)cc1 [Compound 74, 6-benzyl-4-[4-(2-pyridin-4-ylethyl)piperazin-1-yl]-2,6,7,8-tetrahydro-1,2,3,5,6-pentaazaacenaphthylene] | < 50 | < 50 | < 50 | < 50 | < 50 | < 50 |
| COc1ccc(CN2CCc3n[nH]c4nc(Nc5ccc(N6CCN(C(=O)OCc7ccccc7)CC6)cc5)nc2c34)cc1 [Compound 119, benzyl 4-(4-{[6-(4-methoxybenzyl)-2,6,7,8-tetrahydro-1,2,3,5,6-pentaazaacenaphthylen-4-yl]amino}phenyl)piperazine-1-carboxylate] | > 79 | > 79 | > 79 | 50 to 79 | 50 to 79 | 50 to 79 |
| O=C(NCc1ccccc1)C1CN(Cc2ccccc2)c2nc(N3CCCCC3)nc3[nH]nc1c23 (stereo not drawn) [Compound 227, N,6-dibenzyl-4-piperidin-1-yl-2,6,7,8-tetrahydro-1,2,3,5,6-pentaazaacenaphthylene-8-carboxamide] | > 79 | 50 to 79 | > 79 | > 79 | > 79 | < 50 |
| c1ccc(CN2CCc3n[nH]c4nc(NCCCN5CCCCC5)nc2c34)cc1 [Compound 90, 6-benzyl-N-(3-piperidin-1-ylpropyl)-2,6,7,8-tetrahydro-1,2,3,5,6-pentaazaacenaphthylen-4-amine] | > 79 | > 79 | > 79 | > 79 | > 79 | > 79 |
| CN(Cc1cccc2ccccc12)c1nc2c3c(n[nH]c3n1)CCN2Cc1ccccc1 [Compound 6, 6-benzyl-N-methyl-N-(1-naphthylmethyl)-2,6,7,8-tetrahydro-1,2,3,5,6-pentaazaacenaphthylen-4-amine] | < 50 | < 50 | < 50 | < 50 | < 50 | < 50 |
| Brc1ccc(CCNc2nc3c4c(n[nH]c4n2)CCN3Cc2ccccc2)cc1 [Compound 97, 6-benzyl-N-[2-(4-bromophenyl)ethyl]-2,6,7,8-tetrahydro-1,2,3,5,6-pentaazaacenaphthylen-4-amine] | 50 to 79 | < 50 | < 50 | 50 to 79 | < 50 | < 50 |
| COc1ccc(CN2CCc3n[nH]c4nc(NCCc5c[nH]c6ccc(Cl)cc56)nc2c34)cc1 [Compound 115, N-[2-(5-chloro-1H-indol-3-yl)ethyl]-6-(4-methoxybenzyl)-2,6,7,8-tetrahydro-1,2,3,5,6-pentaazaacenaphthylen-4-amine] | > 79 | > 79 | > 79 | > 79 | > 79 | > 79 |
| c1ccc(CN2CCc3n[nH]c4nc(NCCN5CCOCC5)nc2c34)cc1 [Compound 57, 6-benzyl-N-(2-morpholin-4-ylethyl)-2,6,7,8-tetrahydro-1,2,3,5,6-pentaazaacenaphthylen-4-amine] | > 79 | > 79 | > 79 | 50 to 79 | > 79 | > 79 |
| c1ccc(CN2CCc3n[nH]c4nc(N5CCCCC5)nc2c34)cc1 [Compound 76, 6-benzyl-4-piperidin-1-yl-2,6,7,8-tetrahydro-1,2,3,5,6-pentaazaacenaphthylene] | < 50 | < 50 | < 50 | < 50 | < 50 | < 50 |
| Clc1cncc(Cl)c1N1CCN(c2nc3c4c(n[nH]c4n2)CCN3Cc2ccccc2)CC1 [Compound 85, 6-benzyl-4-[4-(3,5-dichloropyridin-4-yl)piperazin-1-yl]-2,6,7,8-tetrahydro-1,2,3,5,6-pentaazaacenaphthylene] | < 50 | < 50 | 50 to 79 | < 50 | > 79 | < 50 |
| COc1ccc(CN2CCN(c3nc4c5c(n[nH]c5n3)CCN4Cc3ccccc3)CC2)cc1 [Compound 24, 6-benzyl-4-[4-(4-methoxybenzyl)piperazin-1-yl]-2,6,7,8-tetrahydro-1,2,3,5,6-pentaazaacenaphthylene] | < 50 | < 50 | < 50 | < 50 | < 50 | < 50 |
| Cc1ccccc1CCNc1nc2c3c(n[nH]c3n1)CCN2Cc1ccccc1 [Compound 87, 6-benzyl-N-[2-(2-methylphenyl)ethyl]-2,6,7,8-tetrahydro-1,2,3,5,6-pentaazaacenaphthylen-4-amine] | < 50 | < 50 | < 50 | 50 to 79 | < 50 | < 50 |
| COc1cccc(CCNc2nc3c4c(n[nH]c4n2)CCN3Cc2ccccc2)c1 [Compound 36, 6-benzyl-N-[2-(3-methoxyphenyl)ethyl]-2,6,7,8-tetrahydro-1,2,3,5,6-pentaazaacenaphthylen-4-amine] | < 50 | < 50 | < 50 | < 50 | < 50 | < 50 |
| CN(C)CCCNc1nc2c3c(n[nH]c3n1)CCN2Cc1ccccc1 [Compound 91, N′-(6-benzyl-2,6,7,8-tetrahydro-1,2,3,5,6-pentaazaacenaphthylen-4-yl)-N,N-dimethylpropane-1,3-diamine] | 50 to 79 | > 79 | > 79 | < 50 | > 79 | < 50 |
| O=C(NCCOc1ccccc1)C1CN(Cc2ccccc2)c2nc(NCc3ccccc3)nc3[nH]nc1c23 (stereo not drawn) [Compound 241, 6-benzyl-4-(benzylmino)-N-(2-phenoxyethyl)-2,6,7,8-tetrahydro-1,2,3,5,6-pentaazaacenaphthylene-8-carboxamide] | < 50 | < 50 | < 50 | < 50 | < 50 | < 50 |
| COc1ccc(CN2CCCc3n[nH]c4nc(NCc5ccc(Cl)cc5)nc2c34)cc1 [Compound 253, N-(4-chlorobenzyl)-6-(4-methoxybenzyl)-6,7,8,9-tetrahydro-2H-1,2,3,5,6-pentaazabenzo[cd]azulen-4-amine] | < 50 | < 50 | < 50 | 50 to 79 | < 50 | < 50 |
